# Earlier results in patent US20100099088A1, “RELIABLE DETECTION OF VANCOMYCIN-INTERMEDIATE STAPHYLOCOCCUS AUREUS” (priority 2006, published 2010).
# Where two headings read alike, the source gives them in different places.
# Legend:
# [1] = system: Staphylococcus aureus strains (MRSA, hVISA/VISA, in vitro-selected); details: cited from earlier work; as to CLSI Etest category: key: S = sensitive; I = intermediate; R = resistant
# Japanese strain Mu3 = details: strain Mu3, tests as susceptible; cited from earlier work
# [2] = strain 160013 (NRS283), 0.5 McF inoculum
# [3] = strain BR 5 (NRS56), 0.5 McF inoculum
# [4] = strain HIP07930 (NRS22), 0.5 McF inoculum
# [5] = strain HIP09433 (NRS27), 0.5 McF inoculum
# [6] = strain HIP09662 (NRS28), 0.5 McF inoculum
# [7] = strain HIP12864 (NRS402), 0.5 McF inoculum
# [8] = strain LIM 1 (NRS35), 0.5 McF inoculum
# [9] = strain LIM 3 (NRS37), 0.5 McF inoculum
# [10] = strain LY-1999 0620-01 (NRS63), 0.5 McF inoculum
# [11] = strain LY-1999 0620-02 (NRS64), 0.5 McF inoculum
# [12] = strain Mu3 (NRS2), 0.5 McF inoculum
# [13] = strain Mu50 (NRS1), 0.5 McF inoculum
# [14] = strain NRS118, 0.5 McF inoculum
# [15] = strain SA MER (NRS11), 0.5 McF inoculum
# [16] = strain SA MER-S20 (NRS14), 0.5 McF inoculum
smiles,measurement,setting,value
CN[C@H](CC(C)C)C(=O)N[C@H]1C(=O)N[C@@H](CC(N)=O)C(=O)N[C@H]2C(=O)N[C@H]3C(=O)N[C@H](C(=O)N[C@H](C(=O)O)c4cc(O)cc(O)c4-c4cc3ccc4O)[C@H](O)c3ccc(c(Cl)c3)Oc3cc2cc(c3O[C@@H]2O[C@H](CO)[C@@H](O)[C@H](O)[C@H]2O[C@H]2C[C@](C)(N)[C@H](O)[C@H](C)O2)Oc2ccc(cc2Cl)[C@H]1O [vancomycin],CLSI Etest MIC,[1]; [2],4 µg/mL
same,CLSI Etest category,[1]; [2],I
same,CLSI Etest MIC,[1]; [3],8 µg/mL
same,CLSI Etest category,[1]; [3],I
same,CLSI Etest MIC,[1]; [4],4 µg/mL
same,CLSI Etest category,[1]; [4],I
same,CLSI Etest MIC,[1]; [5],4 µg/mL
same,CLSI Etest category,[1]; [5],I
same,CLSI Etest MIC,[1]; [6],3 µg/mL
same,CLSI Etest category,[1]; [6],S
same,CLSI Etest MIC,[1]; [7],8 µg/mL
same,CLSI Etest category,[1]; [7],I
same,CLSI Etest MIC,[1]; [8],2 µg/mL
same,CLSI Etest category,[1]; [8],S
same,CLSI Etest MIC,[1]; [9],4 µg/mL
same,CLSI Etest category,[1]; [9],I
same,CLSI Etest MIC,[1]; [10],8 µg/mL
same,CLSI Etest category,[1]; [10],I
same,CLSI Etest MIC,[1]; [11],1.5 µg/mL
same,CLSI Etest category,[1]; [11],S
same,CLSI Etest MIC,[1]; [12],4 µg/mL
same,CLSI Etest category,[1]; [12],I
same,CLSI Etest MIC,[1]; [13],8 µg/mL
same,CLSI Etest category,[1]; [13],I
same,CLSI Etest MIC,[1]; [14],8 µg/mL
same,CLSI Etest category,[1]; [14],I
same,CLSI Etest MIC,[1]; [15],2 µg/mL
same,CLSI Etest category,[1]; [15],S
same,CLSI Etest MIC,[1]; [16],8 µg/mL
same,CLSI Etest category,[1]; [16],I
same,MIC (minimum inhibitory concentration),Japanese strain Mu3,< 4 µg/mL
